Assay results reported in patent US20130296455A1, “NOVEL COMPOUND, DYE AND COLORED PHOTOSENSITIVE COMPOSITION” (ADEKA CORPORATION, priority 2011, published 2013).

Tests used:
Format in all cases: physicochemical
[1] = Solubility in PGMEA; settings: PGMEA added dropwise to 0.1 g of compound; concentration when completely dissolved
Protocol: (§1) Bis(4-formylphenyl)phenylamine (0.90 g, 3 mmol), ethyl cyanoacetate (0.75 g, 6.6 mmol) and ethanol (1.26 g) were added to a reaction container and heated to 50° C. under stirring. Triethylamine (0.06 g, 0.6 mmol) was then added dropwise, a reaction was conducted at 50° C. for 2 hours, and the reactant was cooled to room temperature. The reaction solution was subjected to liquid separation with ethyl acetate/water, the organic layer was dried under a reduced pressure, and the precipitated solid was washed with hexane to thereby give 1.13 g (yield 95.2%) of a yellow powder. That the obtained yellow powder was the intended substance was confirmed by ^1H-NMR and IR. Furthermore, the solubility and absorption wavelength properties (absorption wavelength λmax and absorption coefficient ∈) of compound No. 1 were measured. PGMEA was added dropwise to 0.1 g of the compound under stirring, and the solubility was defined as the concentration at the time when PGMEA had completely dissolved the compound. Furthermore, the absorption wavelength properties were measured in a CHCl3 solution.

[2] = Evaluation of heat-resistance by TG-DTA
Protocol: Compounds Nos. 1, 2, 5 and 46 and Comparative Compounds Nos. 1 and 2 obtained above were analyzed by TG-DTA to thereby measure the melting points and temperatures at 10% weight loss. The results are shown in [Table 4].

[3] = Evaluation of absorption wavelength property in CHCl3 solution; settings: maximum absorption wavelength in CHCl3 solution
Protocol: as §1
The maximum absorption wavelengths of Compounds Nos. 1, 2, 5 and 46 and Comparative Compounds Nos. 1 and 2 obtained above were each evaluated in a CHCl3 solution. The results are shown in [Table 5].

[4] = Evaluation of heat-resistance by calcination of coating of colored alkali-developable photosensitive composition; settings: for relative intensity 230° C., 30 min: absorbance of coating at λmax after calcination 230° C.×30 min, before calcination (after exposure to light) = 100; for λmax: coating of colored alkali-developable photosensitive composition on glass substrate
Protocol: No. 3 obtained above, and comparative colored alkali-developable photosensitive composition No. 1 were each applied to a glass substrate under conditions of 410 rpm×7 sec, and dried on a hot plate (90° C., 90 sec). The obtained coating was exposed to light by a ultrahigh pressure mercury lamp (150 mJ/cm^2). The coating after the exposure to light was calcined under conditions of 230° C.×30 min. The absorbance of the coating before the calcination (after the exposure to light) and the absorbance of the coating after the calcination at the maximum absorption wavelength (λmax) of the compound (dye) as used were measured, and considering the absorption of the coating before the calcination (after the exposure to light) as 100, the absorbance of the coating after the calcination closer to 100 was evaluated to give higher heat-resistance. The results are shown in [Table 6].

## CCOC(=O)/C(C#N)=C/c1ccc(N(c2ccccc2)c2ccc(/C=C(\C#N)C(=O)OCC)cc2)cc1 [Compound No. 1]
[1]
  solubility: 4.6 wt %
[2]
  temperatures at 10% weight loss: 355 °C
[3]
  λmax: 460 nm
[4]
  relative intensity 230° C., 30 min: 94.9
  λmax: 458 nm

## CCOC(=O)/C(C#N)=C/c1ccc(N(c2ccc(/C=C(\C#N)C(=O)OCC)cc2)c2ccc(/C=C(\C#N)C(=O)OCC)cc2)cc1 [Compound No. 2]
[1]
  solubility: 3.5 wt %
[2]
  temperatures at 10% weight loss: 370 °C
[3]
  λmax: 452 nm
[4]
  relative intensity 230° C., 30 min: 98.5
  λmax: 452 nm

## CCOCCOC(=O)/C(C#N)=C/c1ccc(N(CC)CC)cc1 [Comparative Compound No. 2, reference compound]
[2]
  temperatures at 10% weight loss: 252 °C
[3]
  λmax: 432 nm

## CCOC(=O)/C(C#N)=C/c1ccc(N(CC)CCCCCCN(CC)c2ccc(/C=C(\C#N)C(=O)OCC)cc2)cc1 [Compound No. 46]
[1]
  solubility: 0.5 wt %
[2]
  temperatures at 10% weight loss: 346 °C
[3]
  λmax: 430 nm
[4]
  relative intensity 230° C., 30 min: 99.9
  λmax: 436 nm

## CCOC(=O)/C(C#N)=C/c1ccc(N(CC)CC)cc1 [Comparative Compound No. 1, reference compound]
[2]
  temperatures at 10% weight loss: 259 °C
[3]
  λmax: 430 nm
[4]
  relative intensity 230° C., 30 min: 12.5
  λmax: 430 nm

## CCOC(=O)/C(C#N)=C/c1ccc(N2CCN(c3ccc(/C=C(\C#N)C(=O)OCC)cc3)CC2)cc1 [Compound No. 5]
[1]
  solubility: 0.1 wt %
[2]
  temperatures at 10% weight loss: 345 °C
[3]
  λmax: 423 nm
